Source: the CheMixHub ionic liquid set

Experiment: xn = mol fraction of the nth substance listed

C=CC(=O)OC + CCCC[n+]1ccn(C)c1.F[B-](F)(F)F
101 kPa
Conditions	viscosity [mPa·s]
293.15 K, x2 = 0.1387	2.163
293.15 K, x2 = 0.9242	108.1
298.15 K, x2 = 0	0.465
303.15 K, x2 = 0.3354	6.16
303.15 K, x2 = 0.4317	11.33
308.15 K, x2 = 0.8484	39.89
313.15 K, x2 = 0	0.36
318.15 K, x2 = 0	0.334
318.15 K, x2 = 0.6532	12.51
318.15 K, x2 = 0.9242	31.5

OCC(F)(F)F + CCCC[n+]1ccn(C)c1.F[B-](F)(F)F
viscosity [mPa·s], 101 kPa
Conditions	x1 = 0.3913	x1 = 0.5788	x1 = 0.7238	x1 = 0.8247	x1 = 0.9013	x1 = 0.9587	x1 = 1
278.15 K	42.31	15.82	7.33	4.71	3.71	3.42	3.28
283.15 K	34.09	13.39	6.37	4.13	3.25	2.97	2.81
288.15 K	27.93	11.45	5.59	3.66	2.88	2.6	2.42
293.15 K	23.21	9.89	4.95	3.27	2.56	2.29	2.11
298.15 K	19.52	8.63	4.41	2.93	2.3	2.03	1.84
303.15 K	16.61	7.59	3.96	2.65	2.07	1.81	1.62
308.15 K	14.28	6.72	3.57	2.41	1.88	1.62	1.43
313.15 K	12.39	6	3.25	2.21	1.71	1.46	1.27
318.15 K	10.84	5.39	2.97	2.02	1.56	1.33	1.13
323.15 K	9.56	4.87	2.72	1.87	1.43	1.21	1.02
328.15 K	8.49	4.42	2.5	1.72	1.31	1.1	0.925
333.15 K	7.59	4.03	2.31	1.59	1.21	1	0.824

OCC(F)(F)F + CCCC[n+]1ccn(C)c1.F[P-](F)(F)(F)(F)F
viscosity [mPa·s], 101 kPa
Conditions	x1 = 0.4632	x1 = 0.5646	x1 = 0.7299	x1 = 0.8308	x1 = 0.9417	x1 = 1
278.15 K	51.3	27.28	10.69	6.23	3.8	3.28
283.15 K	40.66	22.32	8.93	5.29	3.26	2.81
288.15 K	32.71	18.39	7.58	4.56	2.84	2.42
293.15 K	26.74	15.36	6.51	3.97	2.49	2.11
298.15 K	22.17	13	5.65	3.49	2.21	1.84
303.15 K	18.63	11.13	4.95	3.09	1.96	1.62
308.15 K	15.84	9.64	4.38	2.76	1.76	1.43
313.15 K	13.61	8.42	3.9	2.49	1.57	1.27
318.15 K	11.81	7.42	3.49	2.25	1.41	1.13
323.15 K	10.34	6.59	3.15	2.05	1.28	1.02
328.15 K	9.12	5.89	2.85	1.88	1.18	0.925
333.15 K	8.1	5.3	2.62	1.73	1.07	0.824

OC[C@H]1O[C@H](O[C@H]2[C@H](O)[C@@H](O)C(O)O[C@@H]2CO)[C@H](O)[C@@H](O)[C@@H]1O (some centres undefined) + CCCC[n+]1ccn(C)c1.F[P-](F)(F)(F)(F)F + O
viscosity [mPa·s], 100 kPa
Conditions	293.15 K	298.15 K	303.15 K	308.15 K	313.15 K
x2 = 0, x1 = 0.0001791	1.019	0.9	0.807	0.721	0.657
x2 = 0, x1 = 0.0005383	1.027	0.911	0.816	0.733	0.667
x2 = 0, x1 = 0.0008971	1.038	0.922	0.827	0.742	0.675
x2 = 0, x1 = 0.001255	1.049	0.931	0.832	0.747	0.68
x2 = 0, x1 = 0.001615	1.059	0.94	0.84	0.755	0.686
x2 = 0.0001835, x1 = 0.001259	1.059	0.947	0.86	0.775	0.69
x2 = 0.0001835, x1 = 0.00162	1.07	0.956	0.866	0.782	0.696
x2 = 0.0001836, x1 = 0.0008988	1.049	0.937	0.851	0.768	0.684
x2 = 0.0001837, x1 = 0.0001798	1.03	0.92	0.834	0.751	0.667
x2 = 0.0001837, x1 = 0.0005398	1.037	0.926	0.841	0.76	0.676
x2 = 0.0005376, x1 = 0.001627	1.084	0.97	0.873	0.783	0.709
x2 = 0.0005378, x1 = 0.001265	1.074	0.96	0.864	0.776	0.702
x2 = 0.000538, x1 = 0.0009039	1.064	0.949	0.856	0.769	0.695
x2 = 0.0005382, x1 = 0.0005419	1.052	0.939	0.846	0.76	0.688
x2 = 0.0005384, x1 = 0.0001809	1.043	0.93	0.837	0.752	0.68
x2 = 0.0008951, x1 = 0.001637	1.098	0.976	0.878	0.792	0.713
x2 = 0.0008955, x1 = 0.001273	1.089	0.967	0.869	0.784	0.707
x2 = 0.0008958, x1 = 0.0009101	1.08	0.959	0.861	0.778	0.701
x2 = 0.0008961, x1 = 0.0005458	1.064	0.946	0.851	0.768	0.693
x2 = 0.0008964, x1 = 0.0001816	1.057	0.938	0.842	0.761	0.685
x2 = 0.00126, x1 = 0.0009162	1.084	0.969	0.876	0.79	0.708
x2 = 0.00126, x1 = 0.001282	1.096	0.979	0.883	0.797	0.714
x2 = 0.00126, x1 = 0.001648	1.106	0.989	0.893	0.804	0.721
x2 = 0.001261, x1 = 0.000183	1.061	0.948	0.858	0.774	0.693
x2 = 0.001261, x1 = 0.0005491	1.071	0.959	0.866	0.781	0.7

CCCCCCCO + CCCC[n+]1ccn(C)c1.O=S(=O)([N-]S(=O)(=O)C(F)(F)F)C(F)(F)F
298 K, 100 kPa
Conditions	viscosity [mPa·s]
x2 = 0	5.956
x2 = 0.7975	33.43
x2 = 0.9013	40.9

CCCC[n+]1ccn(C)c1.N#C[S-] + CCCC[n+]1ccn(C)c1.O=S(=O)([N-]S(=O)(=O)C(F)(F)F)C(F)(F)F
100 kPa
Conditions	viscosity [mPa·s]
283.15 K, x2 = 0.25	133.5
288.15 K, x2 = 0	104.5

CCCO + CCCC[n+]1ccn(C)c1.O=S(=O)([N-]S(=O)(=O)C(F)(F)F)C(F)(F)F
Conditions	viscosity [mPa·s]
298 K, 100 kPa, x2 = 0	1.929

ClCCCl + CCCC[n+]1ccn(C)c1.O=S(=O)([N-]S(=O)(=O)C(F)(F)F)C(F)(F)F
Conditions	electrical conductivity [S/m]
294.5 K, 100 kPa, x2 = 0.02555	0.68

OCC(F)(F)F + CCCC[n+]1ccn(C)c1.O=S(=O)([N-]S(=O)(=O)C(F)(F)F)C(F)(F)F
101 kPa
Conditions	viscosity [mPa·s]
278.15 K, x1 = 0.2626	65.4
278.15 K, x1 = 0.4753	30.28
278.15 K, x1 = 0.6153	16.99
278.15 K, x1 = 0.7568	9.09
293.15 K, x1 = 0.6153	10.18
298.15 K, x1 = 0.2626	27.45
298.15 K, x1 = 0.7568	5.03
313.15 K, x1 = 0.4753	9.42
318.15 K, x1 = 0.4753	8.31
323.15 K, x1 = 1	1.02
333.15 K, x1 = 0.2626	9.76
